23 compounds from US20250179078A1, “INHIBITORS OF NLRP3” (PTC THERAPEUTICS, INC., priority 2022, published 2025) can be followed below.

As a reminder, the IC50 is the concentration at which inhibition is half-maximal.

SMILES strings stand for the structures.

The test deals with T1, NLRP3 (Homo sapiens, UniProt Q96P20).
T1 construct: host or cells: THP-1 cells differentiated with PMA
T1 sequence (Q96P20 whole entry): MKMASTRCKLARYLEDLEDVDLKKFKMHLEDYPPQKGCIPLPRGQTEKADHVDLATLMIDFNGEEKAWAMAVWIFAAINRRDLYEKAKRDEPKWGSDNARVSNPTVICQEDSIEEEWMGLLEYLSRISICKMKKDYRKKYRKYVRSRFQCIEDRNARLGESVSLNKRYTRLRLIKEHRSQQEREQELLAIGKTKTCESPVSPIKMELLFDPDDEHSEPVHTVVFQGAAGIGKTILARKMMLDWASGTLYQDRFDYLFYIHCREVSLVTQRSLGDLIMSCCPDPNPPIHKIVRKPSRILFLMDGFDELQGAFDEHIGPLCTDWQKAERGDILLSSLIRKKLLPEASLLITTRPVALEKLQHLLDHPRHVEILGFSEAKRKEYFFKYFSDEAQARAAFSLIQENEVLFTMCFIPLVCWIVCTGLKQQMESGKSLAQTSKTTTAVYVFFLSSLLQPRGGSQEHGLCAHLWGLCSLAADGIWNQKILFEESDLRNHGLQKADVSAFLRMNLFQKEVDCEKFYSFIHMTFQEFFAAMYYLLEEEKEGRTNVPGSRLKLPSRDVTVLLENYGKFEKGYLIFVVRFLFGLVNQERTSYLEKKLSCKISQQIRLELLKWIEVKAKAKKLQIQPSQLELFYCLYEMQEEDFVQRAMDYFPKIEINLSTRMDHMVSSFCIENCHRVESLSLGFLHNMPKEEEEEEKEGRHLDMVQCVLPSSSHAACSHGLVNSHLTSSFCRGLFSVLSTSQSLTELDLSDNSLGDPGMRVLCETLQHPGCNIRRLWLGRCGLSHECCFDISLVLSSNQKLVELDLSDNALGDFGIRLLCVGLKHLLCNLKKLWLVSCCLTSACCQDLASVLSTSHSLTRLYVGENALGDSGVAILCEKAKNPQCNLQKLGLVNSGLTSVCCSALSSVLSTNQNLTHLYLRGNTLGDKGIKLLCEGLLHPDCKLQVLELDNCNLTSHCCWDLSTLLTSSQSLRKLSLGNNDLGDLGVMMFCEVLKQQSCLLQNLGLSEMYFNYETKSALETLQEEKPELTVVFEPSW
Briefly: IL-1β Secretion Assay (NLRP3-dependent IL1β secretion in THP1 cells). The following applies: PMA-differentiated THP-1 cells; compounds incubated 20 h; 2.5 μM Nigericin 3 h; HTRF IL-1β readout; read-out: IC50 IL-1β Inhibition. The test is classed as cell-based. In a few lines:
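IL-1β in conditioned media, measured by HTRF after 3 h 2.5 μM nigericin stimulation, gave % inhibition fitted logistically for IC50. Before that, PMA-differentiated (100 ng/mL, 24 h) THP-1 cells were preincubated 20 h with 7 compound concentrations (3-fold serial, DMSO 1:200).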
Consider `CCN1CCC[C@@H](Nc2nnc(-c3ccc(C)cc3OC(F)F)c3cccn23)C1` [Compound 34, 1-[2-(difluoromethoxy)-4-methylphenyl]-N-[(3R)-1-ethylpiperidin-3-yl]pyrrolo[1,2-d][1,2,4]triazin-4-amine], for which the IC50 is 0.001 to 0.01 µM. For `COc1ccc(-c2nnc(N[C@H]3C[C@@](C)(O)C3)n3cncc23)c(C(F)(F)C(F)(F)F)c1` [Compound 315, (1s,3s)-3-({1-[4-methoxy-2-(pentafluoroethyl)phenyl]imidazo[1,5-d][1,2,4]triazin-4-yl}amino)-1-methylcyclobutan-1-ol] the value was 0.1 to 0.3 µM; for `CC(Nc1nnc(-c2ccc(C(F)(F)F)cc2OC(F)F)c2cccn12)c1cccc(O)c1` (centres unmarked) [Compound 89, 3-[1-({1-[2-(difluoromethoxy)-4-(trifluoromethyl)phenyl]pyrrolo[1,2-d][1,2,4]triazin-4-yl}amino)ethyl]phenol], 0.001 to 0.01 µM. The result for `C[C@]1(CO)C[C@@H](Nc2nnc(-c3ccc(C(F)(F)F)cc3OC(F)(F)F)c3cncn23)C1` [Compound 340, [(1s,3s)-1-methyl-3-({1-[2-(trifluoromethoxy)-4-(trifluoromethyl)phenyl]imidazo[1,5-d][1,2,4]triazin-4-yl}amino)cyclobutyl]methanol] reads 0.001 to 0.01 µM. For `CC(C)(O)C1CC(Nc2nnc(-c3ccc(C(F)(F)F)cc3OC(F)(F)F)c3cncn23)C1` (centres unmarked) [Compound 325, 2-[3-({1-[2-(trifluoromethoxy)-4-(trifluoromethyl)phenyl]imidazo[1,5-d][1,2,4]triazin-4-yl}amino)cyclobutyl]propan-2-ol] the value was 0.01 to 0.1 µM; for `CCN1CCC[C@@H](Nc2nnc(-c3ccc(C(F)(F)F)cc3C(N)=O)c3cc(C)nn23)C1` [Compound 372, 2-(7-{[(3R)-1-ethylpiperidin-3-yl]amino}-2-methylpyrazolo[1,5-d][1,2,4]triazin-4-yl)-5-(trifluoromethyl)benzamide], 0.01 to 0.1 µM; for `CCOc1ccc(-c2nnc(N[C@@H]3CCCN(C)C3)n3cccc23)c(OC(F)(F)F)c1` [Compound 43, 1-[4-ethoxy-2-(trifluoromethoxy)phenyl]-N-[(3R)-1-methylpiperidin-3-yl]pyrrolo[1,2-d][1,2,4]triazin-4-amine], 0.01 to 0.1 µM.

On to `OC[C@H]1C[C@@H](Nc2nnc(-c3ccc(C4CC4)cc3CC(F)(F)F)c3cncn23)C1` [Compound 349, [(1s,3s)-3-({1-[4-cyclopropyl-2-(2,2,2-trifluoroethyl)phenyl]imidazo[1,5-d][1,2,4]triazin-4-yl}amino)cyclobutyl]methanol], for which the IC50 lay in the range of 0.001 to 0.01 µM. The result for `COc1ccc(-c2nnc(N[C@@H]3CCCN(CCO)C3)n3cncc23)c(CC(F)(F)F)c1` [Compound 278, 2-[(3R)-3-({1-[4-methoxy-2-(2,2,2-trifluoroethyl)phenyl]imidazo[1,5-d][1,2,4]triazin-4-yl}amino)piperidin-1-yl]ethan-1-ol] reads below 0.001 µM; that for `COc1ccc(-c2nnc(NC[C@@H](C)O)n3cccc23)c(OC(F)(F)F)c1` [Compound 70, (2R)-1-({1-[4-methoxy-2-(trifluoromethoxy)phenyl]pyrrolo[1,2-d][1,2,4]triazin-4-yl}amino)propan-2-ol], 0.001 to 0.01 µM; that for `CCC(=O)c1ccc(-c2nnc(N[C@@H]3CCCN(C)C3)n3cccc23)c(OC(F)F)c1` [Compound 95, 1-[3-(difluoromethoxy)-4-(4-{[(3R)-1-methylpiperidin-3-yl]amino}pyrrolo[1,2-d][1,2,4]triazin-1-yl)phenyl]propan-1-one], 0.001 to 0.01 µM. As for `COc1ccc(-c2nnc(NC34CC(CO)(C3)C4)n3cccc23)c(OC(F)(F)F)c1` [Compound 94, [3-({1-[4-methoxy-2-(trifluoromethoxy)phenyl]pyrrolo[1,2-d][1,2,4]triazin-4-yl}amino)bicyclo[1.1.1]pentan-1-yl]methanol], the IC50 fell in the range of 0.01 to 0.1 µM. On to `Cc1ccc(-c2nnc(N[C@@H]3CCCN(C)C3)n3cncc23)c(OC(F)F)c1` [Compound 202, 1-[2-(difluoromethoxy)-4-methylphenyl]-N-[(3R)-1-methylpiperidin-3-yl]imidazo[1,5-d][1,2,4]triazin-4-amine], for which the IC50 fell in the range of 0.001 to 0.01 µM. The result for `O[C@@H]1CCCC[C@H]1Nc1nnc(-c2ccc(C(F)(F)F)cc2C(F)(F)F)c2cncn12` [Compound 243, (1R,2R)-2-({1-[2,4-bis(trifluoromethyl)phenyl]imidazo[1,5-d][1,2,4]triazin-4-yl}amino)cyclohexan-1-ol] reads below 0.001 µM; that for `O[C@@H]1CCCC[C@H]1Nc1nnc(-c2ccc(C(F)(F)F)cc2CC(F)(F)F)c2cncn12` [Compound 282, (1R,2R)-2-({1-[2-(2,2,2-trifluoroethyl)-4-(trifluoromethyl)phenyl]imidazo[1,5-d][1,2,4]triazin-4-yl}amino)cyclohexan-1-ol], below 0.001 µM; that for `O[C@H]1CCCC[C@@H]1Nc1nnc(-c2ccc(C(F)(F)F)cc2C(F)(F)F)c2cncn12` [Compound 293, (1S,2S)-2-({1-[2,4-bis(trifluoromethyl)phenyl]imidazo[1,5-d][1,2,4]triazin-4-yl}amino)cyclohexan-1-ol], 0.01 to 0.1 µM.

`COCC1CC(Nc2nnc(-c3ccc(OC)cc3CC(F)(F)F)c3cncn23)C1` (centres unmarked) [Compound 326, N-[3-(methoxymethyl)cyclobutyl]-1-[4-methoxy-2-(2,2,2-trifluoroethyl)phenyl]imidazo[1,5-d][1,2,4]triazin-4-amine]: the half-maximal inhibitory concentration (IC50) was 0.01 to 0.1 µM. The result for `CCN1CC[C@@H](O)[C@@H](Nc2nnc(-c3ccc(C(F)(F)F)cc3OC(F)F)c3cccn23)C1` [Compound 48, (3S,4R)-3-({1-[2-(difluoromethoxy)-4-(trifluoromethyl)phenyl]pyrrolo[1,2-d][1,2,4]triazin-4-yl}amino)-1-ethylpiperidin-4-ol] reads below 0.001 µM. `CN1CCCC(Nc2nnc(-c3ccc(C(F)(F)F)cc3CC(F)(F)F)c3cncn23)C1=O` (centres unmarked) [Compound 329, 1-methyl-3-({1-[2-(2,2,2-trifluoroethyl)-4-(trifluoromethyl)phenyl]imidazo[1,5-d][1,2,4]triazin-4-yl}amino)piperidin-2-one]: the IC50 was in the range of 0.001 to 0.01 µM. For `CCN1CCC[C@@H](Nc2nnc(-c3ccc(OC)cc3OC(F)(F)F)c3cc(C)nn23)C1` [Compound 371, N-[(3R)-1-ethylpiperidin-3-yl]-4-[4-methoxy-2-(trifluoromethoxy)phenyl]-2-methylpyrazolo[1,5-d][1,2,4]triazin-7-amine] the value was 0.001 to 0.01 µM; for `COc1ccc(-c2nnc(NCc3nncn3C)n3cccc23)c(OC(F)(F)F)c1` [Compound 92, 1-[4-methoxy-2-(trifluoromethoxy)phenyl]-N-[(4-methyl-4H-1,2,4-triazol-3-yl)methyl]pyrrolo[1,2-d][1,2,4]triazin-4-amine], 0.1 to 0.3 µM. For `Cc1ccc(-c2nnc(N[C@@H]3CCOC[C@H]3O)n3cncc23)c(CC(F)(F)F)c1` [Compound 402, (3S,4R)-4-({1-[4-methyl-2-(2,2,2-trifluoroethyl)phenyl]imidazo[1,5-d][1,2,4]triazin-4-yl}amino)oxan-3-ol] the value was 0.01 to 0.1 µM; for `FC(F)Oc1ccc(-c2nnc(N[C@@H]3CCCOC3)n3cccc23)c(OC(F)(F)F)c1` [Compound 152, 1-[4-(difluoromethoxy)-2-(trifluoromethoxy)phenyl]-N-[(3R)-oxan-3-yl]pyrrolo[1,2-d][1,2,4]triazin-4-amine], 0.001 to 0.01 µM.
